According to publication PMC4627239, “Discovery of new small molecules inhibiting 67 kDa laminin receptor interaction with laminin and cancer cell invasion” (Oncotarget, 2015):
pIC50: −log10 of the molar value.

Tests used:
[1] = molecular target: T1, 37 kDa laminin receptor precursor (37LRP/67LR) (Homo sapiens, UniProt P08865); assay: ELISA-type inhibition of r37LRP binding to immobilized laminin (and YIGSR)
T1 construct: gene RPSA

[2] = molecular target: T1, 37 kDa laminin receptor precursor (37LRP/67LR); assay: ELISA-type inhibition of r37LRP binding to immobilized laminin at […]; assay type: biochemical

Row | pIC50 [1] | SMILES | ELISA-type inhibition of r37LRP binding to immobilized laminin at 50 μM [2]
1 | 4.23 | COc1ccc(NCc2c(O)ccc3ccccc23)cc1 [compound 13, 1-((4-methoxyanilino)methyl)-2-naphthol] | –
2 | – | Cc1ccc(NCc2c(O)ccc3ccccc23)cc1 [compound 50, 1-(4-toluidinomethyl)-2-naphthol] | NSC47923, NSC48478, NSC48861 and NSC48869 were active to the same extent as NSC47924, by in vitro binding assays
3 | – | Oc1ccc2ccccc2c1CNc1ccc(Cl)cc1 [compound 52, 1-((4-chloroanilino)methyl)-2-naphthol] | NSC47923, NSC48478, NSC48861 and NSC48869 were active to the same extent as NSC47924, by in vitro binding assays
4 | – | Oc1ccc2ccccc2c1CN(Cc1c(O)ccc2ccccc12)c1ccccc1 [compound 60, 1-((((2-hydroxy-1-naphthyl)methyl)anilino)methyl)-2-naphthol] | NSC47923, NSC48478, NSC48861 and NSC48869 were active to the same extent as NSC47924, by in vitro binding assays
5 | – | Cc1ccc(N(Cc2c(O)ccc3ccccc23)Cc2c(O)ccc3ccccc23)cc1 [compound 61, 1-((((2-hydroxy-1-naphthyl)methyl)-4-methylanilino)methyl)-2-naphthol] | NSC47923, NSC48478, NSC48861 and NSC48869 were active to the same extent as NSC47924, by in vitro binding assays
